Test results: patent publication US20250340560A1, “SUBSTITUTED PYRAZOLO[1,5-a]PYRIMIDINES AS BRUTON'S TYROSINE KINASE MODULATORS” (BEIGENE SWITZERLAND GMBH, priority 2013, published 2025)
Where a name gives a salt, the structure may show the parent alone.

Target: Recombinant Btk (Homo sapiens (Human), UniProt Q06187)
Experiment: BTK kinase assay (TR-FRET)
Conditions: read-out: IC50 (nM) Btk; 1 hour pre-incubation, ATP at Km

Sequence of Recombinant Btk (Q06187 whole entry): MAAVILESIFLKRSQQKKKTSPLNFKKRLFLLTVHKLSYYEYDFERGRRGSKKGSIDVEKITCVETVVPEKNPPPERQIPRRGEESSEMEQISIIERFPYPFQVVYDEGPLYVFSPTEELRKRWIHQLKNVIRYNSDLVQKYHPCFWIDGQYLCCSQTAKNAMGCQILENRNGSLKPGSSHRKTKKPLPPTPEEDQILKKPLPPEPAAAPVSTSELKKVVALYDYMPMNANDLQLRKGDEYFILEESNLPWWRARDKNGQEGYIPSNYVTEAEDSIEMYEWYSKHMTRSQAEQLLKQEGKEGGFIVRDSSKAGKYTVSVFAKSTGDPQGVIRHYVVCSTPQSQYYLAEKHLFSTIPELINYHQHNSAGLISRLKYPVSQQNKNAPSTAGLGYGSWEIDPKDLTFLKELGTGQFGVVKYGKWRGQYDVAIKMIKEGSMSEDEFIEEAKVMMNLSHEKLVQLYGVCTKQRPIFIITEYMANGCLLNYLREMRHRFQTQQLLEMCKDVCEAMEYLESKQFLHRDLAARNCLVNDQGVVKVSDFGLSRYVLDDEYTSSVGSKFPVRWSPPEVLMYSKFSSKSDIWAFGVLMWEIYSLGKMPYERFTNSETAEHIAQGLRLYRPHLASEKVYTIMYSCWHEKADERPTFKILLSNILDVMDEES

Compound | IC50 [nM]
CC(=O)N1CCc2[nH]c3c(C(N)=O)c(-c4ccc(Oc5ccccc5)cc4)nn3c2C1 [Compound 55, 7-Acetyl-2-(4-phenoxyphenyl)-5,6,7,8-tetrahydro-4H-pyrazolo[5′,1′:2,3]imidazo [4,5-c]pyridine-3-carboxamide] | 82
N#CCC(=O)N1CCc2[nH]c3c(C(N)=O)c(-c4ccc(Oc5ccccc5)cc4)nn3c2C1 [Compound 56, 7-(2-Cyanoacetyl)-2-(4-phenoxyphenyl)-5,6,7,8-tetrahydro-4H-pyrazolo[5′,1′:2,3]imidazo[4,5-c]pyridine-3-carboxamide] | 110
CN(C)CCC(=O)N1CCc2[nH]c3c(C(N)=O)c(-c4ccc(Oc5ccccc5)cc4)nn3c2C1 [Compound 57, 7-(3-(Dimethylamino)propanoyl)-2-(4-phenoxyphenyl)-5,6,7,8-tetrahydro-4H-pyrazolo[5′,1′:2,3]imidazo[4,5-c]pyridine-3-carboxamide trifluoroacetate] | 37
CC=CC(=O)N1CCc2[nH]c3c(C(N)=O)c(-c4ccc(Oc5ccccc5)cc4)nn3c2C1 [Compound 58, 7-(But-2-enoyl)-2-(4-phenoxyphenyl)-5,6,7,8-tetrahydro-4H-pyrazolo [5′,1′:2,3]imidazo[4,5-c]pyridine-3-carboxamide] | 0.43
NC(=O)c1c(-c2ccc(Oc3ccccc3)cc2)nn2c1[nH]c1cnccc12 [Compound 61, 2-(4-Phenoxyphenyl)-4H-pyrazolo[1′,5′:1,2]imidazo[4,5-c]pyridine-3-carboxamide] | 140
NC(=O)c1c(-c2ccc(Oc3ccccc3)cc2)nn2c3c([nH]c12)CNCC3 [Compound 62, 2-(4-Phenoxyphenyl)-5,6,7,8-tetrahydro-4H-pyrazolo[1′,5′:1,2]imidazo [4,5-c]pyridine-3-carboxamide] | 240
CN(C)C/C=C/C(=O)N1CCc2c([nH]c3c(C(N)=O)c(-c4ccc(Oc5ccccc5)cc4)nn23)C1 [Compound 64, (E)-6-(4-(Dimethylamino)but-2-enoyl)-2-(4-phenoxyphenyl)-5,6,7,8-tetrahydro-4H-pyrazolo[1′,5′:1,2]imidazo[4,5-c]pyridine-3-carboxamide trifluoroacetate] | 0.17
NC(=O)c1c(-c2ccc(Oc3ccccc3)cc2)nn2c1[nH]c1ccc([N+](=O)[O-])cc12 [Compound 65, 7-Nitro-2-(4-phenoxyphenyl)-4H-benzo[4,5]imidazo[1,2-b]pyrazole-3-carboxamide] | 320
NC(=O)c1c(-c2ccc(Oc3ccccc3)cc2)nn2c1NCc1ccc(N)cc1-2 [Compound 68, 8-Amino-2-(4-phenoxyphenyl)-4,5-dihydropyrazolo[1,5-a]quinazoline-3-carboxamide] | 190
C=CC(=O)Nc1ccc2c(c1)-n1nc(-c3ccc(Oc4ccccc4)cc3)c(C(N)=O)c1NC2 [Compound 69, 8-Acrylamido-2-(4-phenoxyphenyl)-4,5-dihydropyrazolo[1,5-a]quinazoline-3-carboxamide] | 7.8
NC(=O)c1c(-c2ccc(Oc3ccccc3)cc2)nn2c1NCCc1cc([N+](=O)[O-])ccc1-2 [Compound 70, 8-Nitro-2-(4-phenoxyphenyl)-5,6-dihydro-4H-benzo[f]pyrazolo[1,5-a][1,3]diazepine-3-carboxamide] | 19
NC(=O)c1c(-c2ccc(Oc3ccccc3)cc2)nn2c1NCCc1cc(N)ccc1-2 [Compound 71, 8-Amino-2-(4-phenoxyphenyl)-5,6-dihydro-4H-benzo[f]pyrazolo[1,5-a][1,3]diazepine-3-carboxamide] | 55
NC(=O)c1c(-c2ccc(Oc3ccccc3)cc2)nn2c1NC(=O)Cc1cc([N+](=O)[O-])ccc1-2 [Compound 73, 8-Nitro-5-oxo-2-(4-phenoxyphenyl)-5,6-dihydro-4H-benzo[f]pyrazolo[1,5-a][1,3]diazepine-3-carboxamide] | > 10000
NC(=O)c1c(-c2ccc(Oc3ccccc3)cc2)nn2c1NC(=O)Cc1cc(N)ccc1-2 [Compound 74, 8-Amino-5-oxo-2-(4-phenoxyphenyl)-5,6-dihydro-4H-benzo[f]pyrazolo[1,5-a][1,3]diazepine-3-carboxamide] | 240
C=CC(=O)Nc1ccc2c(c1)CC(=O)Nc1c(C(N)=O)c(-c3ccc(Oc4ccccc4)cc3)nn1-2 [Compound 75, 8-Acrylamido-5-oxo-2-(4-phenoxyphenyl)-5,6-dihydro-4H-benzo[f]pyrazolo[1,5-a][1,3]diazepine-3-carboxamide] | 41
NC(=O)c1c(-c2ccc(Oc3ccccc3)cc2)nn2c1[nH]c(=O)c1cc([N+](=O)[O-])ccc12 [Compound 76, 7-Nitro-5-oxo-2-(4-phenoxyphenyl)-4,5-dihydropyrazolo[1,5-a]quinazoline-3-carboxamide] | 5500
NC(=O)c1c(-c2ccc(Oc3ccccc3)cc2)nn2c1[nH]c(=O)c1cc(N)ccc12 [Compound 77, 7-Amino-5-oxo-2-(4-phenoxyphenyl)-4,5-dihydropyrazolo[1,5-a]quinazoline-3-carboxamide] | 480
C=CC(=O)Nc1ccc2c(c1)c(=O)[nH]c1c(C(N)=O)c(-c3ccc(Oc4ccccc4)cc3)nn12 [Compound 78, 7-Acrylamido-5-oxo-2-(4-phenoxyphenyl)-4,5-dihydropyrazolo[1,5-a]quinazoline-3-carboxamide] | 21
NC(=O)c1c(-c2ccc(Oc3ccccc3)cc2)nn2c1[nH]c(=O)c1ccc(N)cc12 [Compound 79, 8-Amino-5-oxo-2-(4-phenoxyphenyl)-4,5-dihydropyrazolo[1,5-a]quinazoline-3-carboxamide] | 50
NC(=O)c1c(-c2ccc(Oc3ccccc3)cc2)nn2c(C3CCNCC3)cc(=O)[nH]c12 [Compound 80, 5-Oxo-2-(4-phenoxyphenyl)-7-(piperidin-4-yl)-4,5-dihydropyrazolo[1,5-a]pyrimidine-3-carboxamide] | > 10000
C=CC(=O)N1CCC(c2cc(=O)[nH]c3c(C(N)=O)c(-c4ccc(Oc5ccccc5)cc4)nn23)CC1 [Compound 81] | 5900
NC(=O)c1c(-c2ccc(Oc3ccccc3)cc2)nn2c1NC(=O)C21CCNCC1 [Compound 82, 2-Oxo-6-(4-phenoxyphenyl)-1,2-dihydrospiro[imidazo[1,2-b]pyrazole-3,4′-piperidine]-7-carboxamide] | 3100
C=CC(=O)N1CCC2(CC1)C(=O)Nc1c(C(N)=O)c(-c3ccc(Oc4ccccc4)cc3)nn12 [Compound 83, 1′-Acryloyl-2-oxo-6-(4-phenoxyphenyl)-1,2-dihydrospiro[imidazo[1,2-b]pyrazole-3,4′-piperidine]-7-carboxamide] | 130
NC(=O)c1c(-c2ccc(Oc3ccccc3)cc2)nn2c1NCC(N)C2 (centres unmarked) [Compound 84, 6-Amino-2-(4-phenoxyphenyl)-4,5,6,7-tetrahydropyrazolo[1,5-a]pyrimidine-3-carboxamide] | 2900
C=CC(=O)NC1CNc2c(C(N)=O)c(-c3ccc(Oc4ccccc4)cc3)nn2C1 (centres unmarked) [Compound 85, 6-Acrylamido-2-(4-phenoxyphenyl)-4,5,6,7-tetrahydropyrazolo[1,5-a]pyrimidine-3-carboxamide] | 32
C=CC(=O)NCC1CNc2c(C(N)=O)c(-c3ccc(Oc4ccccc4)cc3)nn2C1 (centres unmarked) [Compound 86, 6-(Acrylamidomethyl)-2-(4-phenoxyphenyl)-4,5,6,7-tetrahydropyrazolo[1,5-a]pyrimidine-3-carboxamide] | 2.2
